Test results reported in PubChem BioAssay (NCI).
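GI50 is the concentration that inhibits growth by half. TGI: concentration producing complete growth inhibition.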

Columns and labels:
Assay in all cases: NCI tumour cell line growth inhibition, 384-well format
[1] = test system: 786-0 renal
[2] = test system: A549 NSCLC
[3] = test system: BT-549 breast
[4] = test system: IGROV1 ovarian
[5] = test system: KM12 colon
[6] = test system: MDA-MB-231 breast
[7] = test system: MDA-MB-468 breast
[8] = test system: NCI-H522 lung
[9] = test system: SF-268 CNS
[10] = test system: SK-MEL-2 melanoma
[11] = test system: SK-MEL-28 melanoma
[12] = test system: SN12C renal
[13] = test system: TK-10 renal

COC(=O)c1ccc([C@H]2c3[nH]c4ccccc4c3C[C@H](C(=O)OC)N2C(=O)CCl)cc1
GI50 [1]: 10.4 nM | TGI [1]: 25 nM | GI50 [2]: 119 nM | TGI [2]: 339 nM | GI50 [3]: 120 nM | TGI [3]: 246 nM | GI50 [4]: 14.2 nM | TGI [4]: 27.5 nM | GI50 [5]: 18.3 nM | TGI [5]: 37.8 nM | GI50 [6]: 14.4 nM | TGI [6]: 28.6 nM | GI50 [7]: < 10 nM | TGI [7]: 19.5 nM | GI50 [8]: < 10 nM | TGI [8]: < 10 nM | GI50 [9]: 19.5 nM | TGI [9]: 42.3 nM | GI50 [10]: 51.7 nM | TGI [10]: 185 nM | GI50 [11]: 1450 nM | TGI [11]: 2830 nM | GI50 [12]: 466 nM | TGI [12]: 1830 nM | GI50 [13]: 15.8 nM | TGI [13]: 33.6 nM
